This passage reports TGI results from PubChem BioAssay (NCI).

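48-hour exposure; five concentrations; linearly interpolated endpoints. TGI marks complete inhibition of growth.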

The first assay relates to SK-MEL-2 melanoma. The assay is described as follows: NCI tumour cell line growth inhibition, 48 h.
The compound `Cc1cn(C2CC(OC(=O)c3ccc(Cl)cc3)C(COC(=O)c3ccc(Cl)cc3)O2)c(=O)[nH]c1=O` (stereo not given) had a TGI greater than 100 µM.

Another assay concerns SK-MEL-28 melanoma. The experiment in a line: NCI tumour cell line growth inhibition, 48 h.
In turn, `S=C(N/N=C/c1ccccn1)N1CCCCC1` showed a TGI greater than 100 µM.

On to `Nn1c(C23CC4CC(CC(C4)C2)C3)n[nH]c1=S`, for which the TGI is greater than 100 µM.

Compound `Cc1cn(C2CC(OC(=O)c3ccc(Cl)cc3)C(COC(=O)c3ccc(Cl)cc3)O2)c(=O)[nH]c1=O` (stereo not given) displayed a TGI greater than 100 µM.

The next assay concerns SK-MEL-5 melanoma. The assay is described as follows: NCI tumour cell line growth inhibition, 48 h.
Compound `S=C(N/N=C/c1ccccn1)N1CCCCC1` gave a TGI of 1.13 µM.

`Nn1c(C23CC4CC(CC(C4)C2)C3)n[nH]c1=S` yielded a TGI greater than 100 µM.

In turn, `Cc1cn(C2CC(OC(=O)c3ccc(Cl)cc3)C(COC(=O)c3ccc(Cl)cc3)O2)c(=O)[nH]c1=O` (stereo not given) displayed a TGI greater than 100 µM.

A further assay relates to SK-OV-3 ovarian. The experiment in a line: NCI tumour cell line growth inhibition, 48 h.
`S=C(N/N=C/c1ccccn1)N1CCCCC1` came in with a TGI greater than 38.8 µM.

For `CC(=O)OCC1OC(N2C(c3ccccc3)=CC(c3cccs3)C(C#N)=C2S)C(OC(C)=O)C(OC(C)=O)C1OC(C)=O` (stereo not given), the TGI was greater than 100 µM.

Take `Nn1c(C23CC4CC(CC(C4)C2)C3)n[nH]c1=S`: the TGI was greater than 100 µM.

Turning to `Cc1cn(C2CC(OC(=O)c3ccc(Cl)cc3)C(COC(=O)c3ccc(Cl)cc3)O2)c(=O)[nH]c1=O` (stereo not given), the TGI was greater than 100 µM.

For the next assay, the system named is SN12C renal. The experiment in a line: NCI tumour cell line growth inhibition, 48 h.
`S=C(N/N=C/c1ccccn1)N1CCCCC1` had a TGI of 1.96 µM.

With `CC(=O)OCC1OC(N2C(c3ccccc3)=CC(c3cccs3)C(C#N)=C2S)C(OC(C)=O)C(OC(C)=O)C1OC(C)=O` (stereo not given), the TGI was greater than 100 µM.

`Nn1c(C23CC4CC(CC(C4)C2)C3)n[nH]c1=S`: the TGI was greater than 100 µM.

For `Cc1cn(C2CC(OC(=O)c3ccc(Cl)cc3)C(COC(=O)c3ccc(Cl)cc3)O2)c(=O)[nH]c1=O` (stereo not given), the TGI was greater than 100 µM.

Another assay concerns SNB-19 CNS. The experiment in a line: NCI tumour cell line growth inhibition, 48 h.
Compound `S=C(N/N=C/c1ccccn1)N1CCCCC1` yielded a TGI greater than 100 µM.

Turning to `CC(=O)OCC1OC(N2C(c3ccccc3)=CC(c3cccs3)C(C#N)=C2S)C(OC(C)=O)C(OC(C)=O)C1OC(C)=O` (stereo not given), the TGI was greater than 100 µM.

As for `Nn1c(C23CC4CC(CC(C4)C2)C3)n[nH]c1=S`, the TGI was greater than 100 µM.

In turn, `Cc1cn(C2CC(OC(=O)c3ccc(Cl)cc3)C(COC(=O)c3ccc(Cl)cc3)O2)c(=O)[nH]c1=O` (stereo not given) yielded a TGI greater than 100 µM.

The test system of the next assay is SNB-75 CNS. The experiment in a line: NCI tumour cell line growth inhibition, 48 h.
On to `S=C(N/N=C/c1ccccn1)N1CCCCC1`, for which the TGI was determined as 0.181 µM.

`CC(=O)OCC1OC(N2C(c3ccccc3)=CC(c3cccs3)C(C#N)=C2S)C(OC(C)=O)C(OC(C)=O)C1OC(C)=O` (stereo not given) came in with a TGI greater than 100 µM.

`Nn1c(C23CC4CC(CC(C4)C2)C3)n[nH]c1=S` had a TGI greater than 100 µM.

`Cc1cn(C2CC(OC(=O)c3ccc(Cl)cc3)C(COC(=O)c3ccc(Cl)cc3)O2)c(=O)[nH]c1=O` (stereo not given) showed a TGI greater than 100 µM.

The test system of a further assay is SR leukemia. The assay is described as follows: NCI tumour cell line growth inhibition, 48 h.
As to `S=C(N/N=C/c1ccccn1)N1CCCCC1`, the TGI came out at 0.217 µM.

For the compound `Nn1c(C23CC4CC(CC(C4)C2)C3)n[nH]c1=S`, the TGI is greater than 100 µM.

With `Cc1cn(C2CC(OC(=O)c3ccc(Cl)cc3)C(COC(=O)c3ccc(Cl)cc3)O2)c(=O)[nH]c1=O` (stereo not given), the TGI was greater than 100 µM.

The next assay concerns SW-620 colon. The experiment in a line: NCI tumour cell line growth inhibition, 48 h.
Compound `S=C(N/N=C/c1ccccn1)N1CCCCC1` came in with a TGI greater than 100 µM.

Compound `Nn1c(C23CC4CC(CC(C4)C2)C3)n[nH]c1=S` showed a TGI greater than 100 µM.

`Cc1cn(C2CC(OC(=O)c3ccc(Cl)cc3)C(COC(=O)c3ccc(Cl)cc3)O2)c(=O)[nH]c1=O` (stereo not given) showed a TGI greater than 100 µM.

The subject of the next assay is T-47D breast. The experiment in a line: NCI tumour cell line growth inhibition, 48 h.
In turn, `CC(=O)OCC1OC(N2C(c3ccccc3)=CC(c3cccs3)C(C#N)=C2S)C(OC(C)=O)C(OC(C)=O)C1OC(C)=O` (stereo not given) displayed a TGI greater than 100 µM.

The compound `Nn1c(C23CC4CC(CC(C4)C2)C3)n[nH]c1=S` displayed a TGI greater than 100 µM.

`Cc1cn(C2CC(OC(=O)c3ccc(Cl)cc3)C(COC(=O)c3ccc(Cl)cc3)O2)c(=O)[nH]c1=O` (stereo not given) displayed a TGI greater than 100 µM.

For another assay, the system named is TK-10 renal. The experiment in a line: NCI tumour cell line growth inhibition, 48 h.
For `S=C(N/N=C/c1ccccn1)N1CCCCC1`, the TGI was greater than 100 µM.

Take `CC(=O)OCC1OC(N2C(c3ccccc3)=CC(c3cccs3)C(C#N)=C2S)C(OC(C)=O)C(OC(C)=O)C1OC(C)=O` (stereo not given): the TGI is greater than 100 µM.

As to `Nn1c(C23CC4CC(CC(C4)C2)C3)n[nH]c1=S`, the TGI was greater than 100 µM.

`Cc1cn(C2CC(OC(=O)c3ccc(Cl)cc3)C(COC(=O)c3ccc(Cl)cc3)O2)c(=O)[nH]c1=O` (stereo not given): the TGI is greater than 100 µM.

The subject of a further assay is U251 CNS. The assay is described as follows: NCI tumour cell line growth inhibition, 48 h.
In the case of `S=C(N/N=C/c1ccccn1)N1CCCCC1`, the TGI was greater than 43.1 µM.

Consider `CC(=O)OCC1OC(N2C(c3ccccc3)=CC(c3cccs3)C(C#N)=C2S)C(OC(C)=O)C(OC(C)=O)C1OC(C)=O` (stereo not given), for which the TGI was greater than 100 µM.

With `Nn1c(C23CC4CC(CC(C4)C2)C3)n[nH]c1=S`, the TGI was greater than 100 µM.

For the compound `Cc1cn(C2CC(OC(=O)c3ccc(Cl)cc3)C(COC(=O)c3ccc(Cl)cc3)O2)c(=O)[nH]c1=O` (stereo not given), the TGI was greater than 100 µM.

In another assay the test system is UACC-257 melanoma. The experiment in a line: NCI tumour cell line growth inhibition, 48 h.
For the compound `S=C(N/N=C/c1ccccn1)N1CCCCC1`, the TGI worked out at 0.188 µM.

In turn, `CC(=O)OCC1OC(N2C(c3ccccc3)=CC(c3cccs3)C(C#N)=C2S)C(OC(C)=O)C(OC(C)=O)C1OC(C)=O` (stereo not given) gave a TGI greater than 100 µM.

Take `Cc1cn(C2CC(OC(=O)c3ccc(Cl)cc3)C(COC(=O)c3ccc(Cl)cc3)O2)c(=O)[nH]c1=O` (stereo not given): the TGI is greater than 100 µM.

The test system of the next assay is UACC-62 melanoma. The assay is described as follows: NCI tumour cell line growth inhibition, 48 h.
For `S=C(N/N=C/c1ccccn1)N1CCCCC1`, the TGI amounted to 0.575 µM.

`Nn1c(C23CC4CC(CC(C4)C2)C3)n[nH]c1=S` yielded a TGI greater than 100 µM.

`Cc1cn(C2CC(OC(=O)c3ccc(Cl)cc3)C(COC(=O)c3ccc(Cl)cc3)O2)c(=O)[nH]c1=O` (stereo not given): the TGI is greater than 100 µM.

The subject of the next assay is UO-31 renal. The assay is described as follows: NCI tumour cell line growth inhibition, 48 h.
`S=C(N/N=C/c1ccccn1)N1CCCCC1` returned a TGI of 15.2 µM.

As to `CC(=O)OCC1OC(N2C(c3ccccc3)=CC(c3cccs3)C(C#N)=C2S)C(OC(C)=O)C(OC(C)=O)C1OC(C)=O` (stereo not given), the TGI is greater than 100 µM.

The compound `Nn1c(C23CC4CC(CC(C4)C2)C3)n[nH]c1=S` had a TGI greater than 100 µM.

Consider `Cc1cn(C2CC(OC(=O)c3ccc(Cl)cc3)C(COC(=O)c3ccc(Cl)cc3)O2)c(=O)[nH]c1=O` (stereo not given), for which the TGI was greater than 100 µM.
